The text below walks through data of patent US12180187B2, “1-phenyl-5-azinylpyrazolyl-3-oxyalkyl acids and their use for controlling unwanted plant growth” (BAYER AKTIENGESELLSCHAFT, priority 2019, dated 2024).

The test system of assay [1] is DIGSA. As to the kind of experiment: Pre-emergence action against DIGSA, 1280 g/ha. The note with it: visual scoring after about 3 weeks vs untreated controls, 100% = plants have died, 0% = like control plants. The format is in vivo, Digitaria sanguinalis. The method in brief:
(§1)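 Soil-surface application after sowing, before emergence: WP or EC formulations in water with 0.5% additive, 600 litres per hectare, onto sandy loam pots. Damage rated visually in % relative to untreated plants after roughly 3 weeks in a greenhouse.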

The subject of assay [2] is LOLRI. The assay is described as follows: Pre-emergence action against LOLRI, 1280 g/ha. The assay is classed as in vivo, Lolium rigidum. The note with it: visual scoring after about 3 weeks vs untreated controls, 100% = plants have died, 0% = like control plants. The method in brief: as §1
Assay [3] deals with ABUTH. As to the kind of experiment: Pre-emergence action against ABUTH, 1280 g/ha. The format is in vivo, Abutilon theophrasti. To be noted: scored visually after about 3 weeks vs untreated controls (100% = plants have died). The method in brief: as §1
Assay [4] has as its system VERPE. As to the kind of experiment: Pre-emergence action against VERPE, 1280 g/ha. The format is in vivo, Veronica persica. The note with it: scored visually after about 3 weeks vs untreated controls (100% = plants have died). An outline of the steps: as §1
For assay [5], the system named is AVEFA. The assay is described as follows: Pre-emergence action at 320 g/ha against AVEFA. The format is in vivo. To be noted: visual scoring after about 3 weeks vs untreated controls. An outline of the steps: (§2)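 Effect rated visually (% vs untreated control) about 3 weeks after pre-emergence spraying of WP/EC formulation onto soil; spray carried 0.5% additive at 600 l/ha water.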

Assay [6] has as its system LOLRI. The assay is described as follows: Pre-emergence action at 320 g/ha against LOLRI. The format is in vivo, Lolium rigidum. The note with it: visual scoring after about 3 weeks vs untreated controls. An outline of the steps: as §2
Assay [7] concerns VERPE. As to the kind of experiment: Pre-emergence action at 320 g/ha against VERPE. To be noted: visual scoring after about 3 weeks vs untreated controls. The format is in vivo, Veronica persica. The method in brief:
as §2

For assay [8], the system named is ALOMY. The assay is described as follows: Post-emergence action against ALOMY, 1.28 kg/ha. The format is in vivo, Alopecurus myosuroides. The note with it: dosage 1280 g/ha, visual rating about 3 weeks after treatment vs untreated controls. The method in brief:
(§3)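 Herbicidal action is estimated by eye after about three weeks under optimum greenhouse conditions, on a 0–100% scale against untreated plants. Compounds are applied post-emergence to one-leaf-stage weeds as aqueous WP or EC preparations containing 0.5% additive, sprayed at 600 L/ha.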

For assay [9], the system named is DIGSA. As to the kind of experiment: Post-emergence action against DIGSA, 1.28 kg/ha. The assay is classed as in vivo, Digitaria sanguinalis. To be noted: dosage 1280 g/ha, visual rating about 3 weeks after treatment vs untreated controls. An outline of the steps:
as §3

For assay [10], the system named is SETVI. As to the kind of experiment: Post-emergence action against SETVI, 1.28 kg/ha. To be noted: dosage 1280 g/ha, visual rating about 3 weeks after treatment vs untreated controls. The format is in vivo, Setaria viridis. The method in brief:
as §3

For assay [11], the system named is MATIN. The assay is described as follows: Post-emergence action against MATIN, 1.28 kg/ha. The format is in vivo, Tripleurospermum inodorum (Matricaria inodora). The note with it: dosage 1280 g/ha, visual rating about 3 weeks after treatment vs untreated controls (100% = plants died). The method in brief:
as §3

Assay [12] has as its system STEME. As to the kind of experiment: Post-emergence action against STEME, 1.28 kg/ha. The format is in vivo, Stellaria media. To be noted: dosage 1280 g/ha, visual rating about 3 weeks after treatment vs untreated controls (100% = plants died). The method in brief: as §3
Assay [13] concerns VERPE. As to the kind of experiment: Post-emergence action against VERPE, 1.28 kg/ha. The format is in vivo, Veronica persica. The note with it: dosage 1280 g/ha, visual rating about 3 weeks after treatment vs untreated controls (100% = plants died). The method in brief:
as §3

Assay [14] concerns ALOMY. The assay is described as follows: Post-emergence action against ALOMY, 320 g/ha. The assay is classed as in vivo, Alopecurus myosuroides. The note with it: dosage 320 g/ha, visual rating about 3 weeks after treatment vs untreated controls (100% = plants died). An outline of the steps:
(§4)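 Greenhouse pot plants in sandy loam received a foliar spray of WP- or EC-formulated compound at the one-leaf stage. Percent activity against untreated controls was assessed visually around three weeks later.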

Assay [15] relates to PHBPU. The assay is described as follows: Post-emergence action at 320 g/ha against PHBPU. The assay is classed as in vivo. The note with it: visual rating about 3 weeks after treatment vs untreated controls. The method in brief:
as §4

Assay [16] has as its system AMARE. As to the kind of experiment: Post-emergence action at 320 g/ha against AMARE. The assay is classed as in vivo, Amaranthus retroflexus. The note with it: visual rating about 3 weeks after treatment vs untreated controls. The source says:
Accordingly, the compounds of the invention have good herbicidal action against a broad spectrum of weed grasses and broad-leaved weeds and are therefore suitable for controlling unwanted vegetation by the post-emergence method. • b) Seeds of monocotyledonous and dicotyledonous weeds and crop plants are placed in sandy loam in plastic or organic planting pots, covered with soil and cultivated in a greenhouse under controlled growth conditions. 2 to 3 weeks after sowing, the test plants are treated at the one-leaf stage. The compounds of the invention, formulated in the form of wettable powders (WP) or as emulsion concentrates (EC), are then sprayed onto the green parts of the plants as aqueous suspension or emulsion with addition of 0.5% additive at a water application rate of 600 l/ha (converted). After the test plants have been kept in the greenhouse under optimum growth conditions for about 3 weeks, the activity of the preparations is rated visually in comparison to untreated controls. For example, 100% activity=the plants have died, 0% activity=like control plants. Tables 39 to 49 below show the effects of selected compounds of the general formula (I) according to Tables 1 and 2 on various harmful plants and at an application rate corresponding to 320 g/ha, which were obtained by the experimental procedure mentioned above.

Consider `COCCOC(=O)COc1nn(-c2ccccc2F)c(-c2ccc(F)nc2)c1Br` [VII-052], for which the “Pre-emergence action against DIGSA” value in assay [1] stood at 100%. Also, the “Pre-emergence action against LOLRI” value in assay [2] is recorded as 100%. Further, in assay [3], the “Pre-emergence action against ABUTH” value turned out to be 100%. In addition, in [4], the “Pre-emergence action against VERPE” value worked out at 100%. Further, in assay [5], the “Pre-emergence action against AVEFA in %” value was 90%. Besides, the “Pre-emergence action against LOLRI in %” value in assay [6] came to 100%. Besides, the “Pre-emergence action against VERPE in %” value in [7] amounted to 90%. Besides, the “Post-emergence action against ALOMY” value in assay [8] was 100%; in [14] it was 90%. The “Post-emergence action against DIGSA” value in assay [9] came to 100%. In assay [10], the “Post-emergence action against SETVI” value worked out at 90%. Moreover, the “Post-emergence action against MATIN” value in assay [11] amounted to 100%. For the same molecule, the “Post-emergence action against STEME” value in [12] is given as 100%. For the same molecule, in assay [13], the “Post-emergence action against VERPE” value amounted to 100%. Besides, the “Post-emergence action against PHBPU in %” value in assay [15] stood at 80%.

With `COC(=O)[C@@H](C)Oc1nn(-c2cc(F)ccc2F)c(-c2ccc(F)nc2)c1Br` [VII-062], the “Pre-emergence action against DIGSA” value in assay [1] is recorded as 100%. Besides, in assay [2], the “Pre-emergence action against LOLRI” value was determined as 100%. Further, in assay [3], the “Pre-emergence action against ABUTH” value was found to be 90%. The “Pre-emergence action against VERPE” value in assay [4] was 100%. Also, the “Pre-emergence action against AVEFA in %” value in [5] came out at 100%. In addition, the “Pre-emergence action against LOLRI in %” value in assay [6] was found to be 100%. Further, the “Pre-emergence action against VERPE in %” value in [7] came out at 100%. In addition, the “Post-emergence action against ALOMY” value worked out at 100% in assay [8] and 90% in [14]. Moreover, in assay [9], the “Post-emergence action against DIGSA” value stood at 100%. The “Post-emergence action against STEME” value in [12] was 100%. Besides, the “Post-emergence action against VERPE” value in assay [13] is recorded as 100%. Also, the “Post-emergence action against PHBPU in %” value in assay [15] is 80%.

Take `O=C(COc1nn(-c2ccccc2F)c(-c2ccc(F)nc2)c1Br)OCC1OCCO1` [VII-103]: in assay [1], the “Pre-emergence action against DIGSA” value came to 100%. The “Pre-emergence action against LOLRI” value in assay [2] amounted to 100%. The “Pre-emergence action against ABUTH” value in assay [3] is on record as 90%. The “Pre-emergence action against VERPE” value in assay [4] amounted to 100%. For the same molecule, the “Pre-emergence action against AVEFA in %” value in assay [5] is recorded as 90%. Besides, the “Pre-emergence action against LOLRI in %” value in assay [6] is listed as 100%. For the same molecule, in assay [7], the “Pre-emergence action against VERPE in %” value is given as 100%. Moreover, the “Post-emergence action against ALOMY” value in assay [8] and in assay [14] was 100% throughout. For the same molecule, the “Post-emergence action against DIGSA” value in [9] stood at 100%. The “Post-emergence action against SETVI” value in assay [10] is 90%. Also, in [11], the “Post-emergence action against MATIN” value is 90%. Besides, in assay [13], the “Post-emergence action against VERPE” value is given as 100%. Further, the “Post-emergence action against PHBPU in %” value in assay [15] stood at 80%.

On to `COC(=O)[C@@H](C)Oc1nn(-c2cc(F)ccc2F)c(-c2cncc(F)c2)c1C#N` [VII-147], for which, in assay [1], the “Pre-emergence action against DIGSA” value was 100%. Also, in assay [2], the “Pre-emergence action against LOLRI” value worked out at 100%. Further, the “Pre-emergence action against ABUTH” value in assay [3] worked out at 90%. Also, in assay [4], the “Pre-emergence action against VERPE” value came to 100%. The “Pre-emergence action against AVEFA in %” value in assay [5] is 100%. In [6], the “Pre-emergence action against LOLRI in %” value was determined as 100%. Besides, the “Pre-emergence action against VERPE in %” value in [7] is 100%. Further, the “Post-emergence action against ALOMY” value in assay [8] is given as 100%; in assay [14] it was 90%. In addition, the “Post-emergence action against DIGSA” value in assay [9] came to 100%. In addition, the “Post-emergence action against SETVI” value in assay [10] is recorded as 90%. In addition, the “Post-emergence action against MATIN” value in assay [11] is recorded as 100%. In assay [12], the “Post-emergence action against STEME” value stood at 100%. For the same molecule, the “Post-emergence action against VERPE” value in [13] was 100%. In [15], the “Post-emergence action against PHBPU in %” value is given as 90%.

For `COC(=O)[C@@H](C)Oc1nn(-c2ccccc2F)c(-c2ccnc(F)c2)c1Br` [VIII-006], the “Pre-emergence action against DIGSA” value in assay [1] was 100%. In assay [2], the “Pre-emergence action against LOLRI” value is reported as 100%. In addition, the “Pre-emergence action against ABUTH” value in assay [3] was found to be 90%. For the same molecule, in assay [4], the “Pre-emergence action against VERPE” value was 100%. Further, the “Pre-emergence action against AVEFA in %” value in assay [5] was found to be 80%. The “Pre-emergence action against LOLRI in %” value in assay [6] is on record as 100%. Further, the “Post-emergence action against ALOMY” value in assay [8] and in assay [14] was 100% each time. The “Post-emergence action against DIGSA” value in assay [9] was 90%. Besides, the “Post-emergence action against SETVI” value in assay [10] is 90%. Besides, the “Post-emergence action against MATIN” value in [11] was 100%. Moreover, the “Post-emergence action against STEME” value in assay [12] is given as 100%. The “Post-emergence action against VERPE” value in assay [13] is 90%. For the same molecule, in [16], the “Post-emergence action against AMARE in %” value turned out to be 80%.
